The text below walks through data of US4870002A, “Method of prevention of oxidative injury to cells” (priority 1985, dated 1989).

Assay [1] has as its system Con A-Lu-BSA labeled pig RBCs. Put plainly: Chemiluminescence of Con A-Lu-BSA labeled pig RBCs with exogenous hydrogen peroxide. In kind it is cell-based. As for the experimental part:
The luminol-bovine serum albumin (Lu-BSA) complex was made by mixing 2 mg luminol (5-amino-2, 3-dihydrophthalazine-1,4-dione), 0.2 ml of 2 mg BSA/ml PBS (pH 6.9), and 1.6 ml of PBS, pH 6.9. The preparation was then passed through a 0.22 μm nitrocellulose filter to remove insoluble luminol. Next, 0.2 ml of 2 mg Con A/ml of PBS, pH 6.9, was added to the filtrate. After gentle mixing, 10 μl of 25% glutaraldehyde were added. The solution was incubated in the refrigerator for 1 hour. To stop the conjugation, 100 mg of glycine was added to the solution. The solution was then pressed through a 48 ml column of dextran gel filtration beads equilibrated with PBS, pH 6.9. The gel exclusion size was greater than 5000 for globular molecules. The fractions were collected and tested for luminescent labeling activity.
One ml of supernatant of each 10 ml aliquot of 1:20 diluted RBCs was replaced with 1 ml of Con A-Lu-BSA solution as previously described. The preparation was incubated for 15 min. at 37° C. in a water-jacketedcell culture incubator. The cells were then pelleted in a clinical centrifuge, resuspended in PBS, and washed in the same manner two additional times. The washed cells were maintained at 4° C. until used the same day of preparation.
Following exposure to chemical or physical stressors, 100 μl of the RBC suspension was added to 500 μl of PBS, pH 7.4, containing 0.3% hydrogen peroxide, in a scintillation vial. To activate the sample, 100 μl of 0.1N NaOH were added to the vial in place in an ATP photometer (Integrating ATP Photometer Model 3000, Science Applications, San Diego, California 92121) The photometer was set to a dark count of 1 count/30 second at a sensitivity of 600 at room temperature (approximately 23° C.). All counts followed a 5 second delay period to allow for stabilization of the photomultiplier. The counts are reported as counts/30 sec.
All essays were run at room temperature. The post-collection age of those cells was 11-18 days and the cells were used the day of labeling. […] Pyruvate (1.43 mM), an autoxidizable substrate, doubled the CL of labeled cells.

In a further assay the test system is pig RBCs. As to the kind of experiment: Thermal fragility / hemolysis of RBCs (410 nm absorbance of supernatant). The class given is cell-based. As to conditions: 340 μM; for effect on thermal hemolysis, in words: 48° C. for 30 min. On the procedure:
Blood was collected from Landrace-Duroc swine from a closed herd. Pigs from this herd had previously expressed episodes of porcine stress syndrome (malignant hyperthermia) following halothane anesthesia. The blood was collected into acidic citrated dextrose solution in standard blood bags. The blood was diluted 1:10 in phosphate (0.1M) buffered saline (PBS), pH 7.4, in 10 ml aliquots, centrifuged in a clinical centrifuge, and the erythrocytes were resuspended in fresh PBS. The cells were stored at 4° C. until used in the various assays. The post-collection chronological age of the RBCs used for a particular assay is noted in the results for each assay. The cells were counted in an automated cell counter (Coulter ZBI, Coulter Electronics, Inc., Hialeah, Fla. 33010).
Red blood cells were heated in 1 or 1.5 ml aliquots of PBS pH 7.4 with or without additional reagents in cellulose nitrate or polypropylene centrifuge tubes. Two concentrations of cells were used as indicated in the results. Heating was accomplished by three methods: microwave radiation, hot air, or water bath heating. The microwave device was a circularly polarized waveguide powered by a 1-kw S-band (microwave) amplifier (Model 10704,MCL, Inc., La Grange, Ill.). The heating of the sample at a specific absorption rate (SAR) of 91±4 W/kg (continuous wave (CW), 2450MHz) was offset by an air-cooling system that maintained a constant temperature. This system has been previously described in greater detail in Kiel, J. L. and D. N. Erwin, "Microwave and thermal interactions with oxidative hemolysis", 16 Physiol. Chem. Phys. Med. NMR, 317-323 (1984), which reference is hereby incorporated in its entirety by this specific reference thereto. […] The temperature was held within ±0.2° C. by this system. In the absence of microwave radiation, the temperature was held constant by hot air alone. The microwave/hot air system was brought to 37° C. for 15 min. prior to raising the temperature to 43° C. by microwaves or hot hot air. The water bath heating held the temperature within ±0.5° C. Heating times were 10, 15, or 30 min. The temperatures examined were 37°, 43°, 45°, or 48°.
Hemoglobin released into the supernatants of the heated cells were determined by the method described in the above-incorporated reference of Kiel and Erwin (1984). In brief, the supernatants were collected following centrifugation in a clinical centrifuge, diluted 1:2 in PBS, pH 7.4, and the optical absorbances at 410 nm were determined in a dual beam spectrophotometer. Pyruvate, lactate, inosine, hydrogen peroxide, mimosine, and/or 3-amino-L-tyrosine were added to the samples as indicated in Tables 1-3 and 9-12. All reagents were diluted in PBS and the final volumes of the samples were constant.

The next assay concerns peroxidase. Put plainly: 3-aminotyrosine oxidation by peroxidase. In kind it is biochemical.

By inhibition is commonly meant the share of the control response that was lost under treatment. Consider `NC(Cn1ccc(=O)c(O)c1)C(=O)O` [L--mimosine, L-mimosine], for which, in assay [1] (630 μM), the “CL (30 sec)” value is 8,555 ± 1,044 counts/30 sec and the “level of CL below natural RBC CL” value is on record as 36%. Further, the “effect of prewashing labeled cells on CL, in words” value in assay [1] (5 mM, 30 min at room temperature) was “no significant effect”. Further, in assay [1] (Sus scrofa, Erythrocyte, 630 μM, read-out: Percent control), the activity at 630 µM was found to be 28%. The activity at 5000 µM in assay [1] (Sus scrofa, Erythrocyte, pretreatment 5 mM, 30 min, washed before activation, read-out: Percent control) is 94%. Moreover, in assay [1] (Sus scrofa, 630 μM, read-out: inhibition of CL), the inhibition at 630 µM amounted to 72%. Further, in assay [1] (pretreatment 5 mM, 30 min, washed before activation), the “CL (30 sec)” value is 28,517 ± 2,591 counts/30 sec. In the assay on pig RBCs (48° C. 30 min), the “Percent difference from controls (corrected), 4° C.” value worked out at 95.1% and the “Percent difference from controls (corrected), 48° C.” value came out at 21.5%. Also, the “410 nm absorbance, Actual” value in the assay on pig RBCs (48° C. 30 min, RBCs 20 days post collection, 1.4×10^9 per ml) worked out at 0.965 ± 0.026. Moreover, in the assay with pig RBCs (48° C. 30 min, corrected for RBC dilution), the “410 nm absorbance, Corrected” value is given as 0.724. The “effect on thermal hemolysis, in words” value in the assay on pig RBCs (listed as Mimosine) was “had no effect”. For the same compound, the “effect on thermal hemolysis, in words” value in the assay on pig RBCs (listed as mimosine) is on record as “failed to protect”. The “mode of inhibition, in words” value in the assay with peroxidase is “uncompetitive inhibitor”.
